# Test results as given in patent US4675337A, “Non-mutagenic 1,2-disubstituted 4-nitro-imidazoles useful as antiprotozoal agents” (priority 1986, dated 1987).
# Read-outs that look alike come from different tables or passages of the source.
# Tests used:
# [1] = system: T. foetus; assay: Trichomonal activity in vivo: survival of mice infected i.p. with T. foetus; details: Tritrichomonas foetus, po, 336 h
# Procedure: Mice were infected through intraperitoneal (I.P.) injection of 1.4×10^7 T. foetus. Each compound disclosed in Table I below was dissolved in an aqueous vehicle, dosed to groups of mice (consisting of five) by gavage. The mice were dosed once per day for four consecutive days with doses ranging from 1-50 mg/kg. The effective dose of the compound, ED50, was calculated from the number of animals surviving a two week period.
# [2] = system: T. foetus; assay: Trichomonal activity in vitro; type: cell-based; details: Tritrichomonas foetus, Table I, read-out: ED50 (T. foetus) in vitro
# [3] = system: Ames Salmonella TA100; details: for In vivo Safety Index (rel to flagyl): relative increase in safety (1/mutagenicity) at the ED50 dose, relative to flagyl
# Text: This test involves the addition to a fermentation medium in which is growing a particular organism identified as Ames Salmonella TA100, and measuring the number of mutant organisms formed.
# [4] = Cytotoxicity in rat hepatocytes; type: cell-based; details: relative to control cells
# Text: **Relative viability is the number of hepatocytes surviving exposure to
# the nitroimidazoles relative to the control cells.
# [5] = system: Rat hepatocytes; assay: Single strand DNA breaks in rat hepatocytes (elution); type: cell-based; details: for Relative Elution Slope: relative to control 1.00, ≥3.0 significant
# Text: *Measure of the extent of DNA strand cleavage. Only relative elution
# slopes ≥3.0 are considered significant. Therefore, […]
# [6] = Table I, gavage once per day for four consecutive days, survival over two weeks, read-out: ED50 (T. foetus) in vivo
# [7] = Table III, read-out: T. foetus (ED50) In vivo
# [8] = Table II, read-out: T. foetus In Vivo (ED50)
# [9] = Table II, relative to ronidazole
Structure (SMILES),IC50 [2],"ED50 [1, 6]","ED50 [1, 7]","Mutagenicity ([3]; Table III, Ames TA100 strain)",other results
CCn1cc([N+](=O)[O-])nc1S(C)(=O)=O [Compound 1],25 µg/mL,10 to 50 mg/kg,–,–,–
"CCS(=O)(=O)c1nc([N+](=O)[O-])cn1C [Compound 2, 1-methyl-2-ethylsulfonyl-4-nitroimidazole]",18.5 µg/mL,2 to 5 mg/kg,2 to 5 mg/kg,0.1 percent ronidazole,–
"CCCS(=O)(=O)c1nc([N+](=O)[O-])cn1C [Compound 3, 1-methyl-2-propylsulfonyl-4-nitroimidazole]",27 µg/mL,5 to 10 mg/kg,5 to 10 mg/kg,0.1 percent ronidazole,–
"CC(C)S(=O)(=O)c1nc([N+](=O)[O-])cn1C [Compound 4, 1-methyl-2-isopropylsulfonyl-4-nitroimidazole]",21 µg/mL,5 to 10 mg/kg,5 to 10 mg/kg,0.1 percent ronidazole,–
"Cn1cc([N+](=O)[O-])nc1S(=O)(=O)c1ccccc1 [Compound 5, 1-methyl-2-phenylsulfonyl-4-nitroimidazole]",17 µg/mL,10 to 25 mg/kg,10 to 25 mg/kg,0.1 percent ronidazole,–
"CCSc1nc([N+](=O)[O-])cn1C [Compound 8, 1-methyl-2-ethylthio-4-nitroimidazole]",2.3 µg/mL,2 mg/kg,–,–,"ED50 [1, 8]: 2 mg/kg; mutants per plate ([3]; 3 μg per plate): indistinguishable from background; mutants per plate ([3]; 30 μg per plate): indistinguishable from background; mutants per plate ([3]; 100 μg per plate): 30 mutants per plate; mutants per plate ([3]; 300 μg per plate): 65 mutants per plate; mutagenicity (conclusion in words) ([3]; Ames test): non-mutagenic; In vivo Safety Index (rel to flagyl) ([3]; Table II): > 1750; Mutagenicity [3, 9]: < 0.1 percent Ronidazole; viability at 500 µM ([4]; 0.5 mM): 107%; viability at 1500 µM ([4]; 1.5 mM): 105%; viability at 5000 µM ([4]; 5.0 mM): 102%; Relative Elution Slope ([5]; 0.5 mM): 1.33; Relative Elution Slope ([5]; 1.5 mM): 1.23; Relative Elution Slope ([5]; 5.0 mM): 1.60; significant DNA strand breakage (in words) ([5]; up to 5.0 mM): did not cause significant DNA strand"
"Cc1ncc([N+](=O)[O-])n1CCO [Flagyl, 1-(2-hydroxyethyl)-2-methyl-5-nitro-imidazole, reference compound]",0.4 µg/mL,25 to 50 mg/kg,25 to 50 mg/kg,–,"ED50 [1, 8]: 50 mg/kg; viability at 3000 µM ([4]; 3.0 mM): 107%; viability at 10000 µM ([4]; 10.0 mM): 101%; DNA strand breaks (in words) ([5]; at both 3.0 and 10.0 mM): caused breaks"
"Cn1c([N+](=O)[O-])cnc1COC(N)=O [Ronidazole, 1-methyl-2-[(carbamoyloxy)methyl]-5-nitroimidazole, reference compound]",–,–,5 to 10 mg/kg,100.0 percent ronidazole,"ED50 [1, 8]: 2 to 5 mg/kg; mutants per plate ([3]; 3 μg per plate): 358 mutants per plate; mutants per plate ([3]; 30 μg per plate): 2682 mutants per plate; In vivo Safety Index (rel to flagyl) ([3]; Table II): 0.7; Mutagenicity [3, 9]: 100 percent Ronidazole"

# Further lines, with some results ahead:
IC50 [2],Structure (SMILES),"ED50 [1, 6]","ED50 [1, 7]","Mutagenicity ([3]; Table III, Ames TA100 strain)",other results
14 µg/mL,"Cn1cc([N+](=O)[O-])nc1[S+](C)[O-] (stereo not drawn) [Compound 6, 1-methyl-2-methylsulfinyl-4-nitroimidazole]",2 to 5 mg/kg,–,–,–
2.1 µg/mL,"CSc1nc([N+](=O)[O-])cn1C [Compound 7, 1-methyl-2-methylthio-4-nitroimidazole]",5 to 10 mg/kg,–,–,–
4 µg/mL,"CCCSc1nc([N+](=O)[O-])cn1C [Compound 9, 1-methyl-2-propylthio-4-nitroimidazole]",5 mg/kg,–,–,–
4 µg/mL,"CC(C)Sc1nc([N+](=O)[O-])cn1C [Compound 10, 1-methyl-2-isopropylthio-4-nitroimidazole]",10 to 50 mg/kg,–,–,–
